In one data set the target is T1, COX-1 (Ovis aries, UniProt P05979).
T1 construct: purchased Cayman Chemicals (bought through Sigma-Aldrich) 560131
T1 sequence (P05979 25-600): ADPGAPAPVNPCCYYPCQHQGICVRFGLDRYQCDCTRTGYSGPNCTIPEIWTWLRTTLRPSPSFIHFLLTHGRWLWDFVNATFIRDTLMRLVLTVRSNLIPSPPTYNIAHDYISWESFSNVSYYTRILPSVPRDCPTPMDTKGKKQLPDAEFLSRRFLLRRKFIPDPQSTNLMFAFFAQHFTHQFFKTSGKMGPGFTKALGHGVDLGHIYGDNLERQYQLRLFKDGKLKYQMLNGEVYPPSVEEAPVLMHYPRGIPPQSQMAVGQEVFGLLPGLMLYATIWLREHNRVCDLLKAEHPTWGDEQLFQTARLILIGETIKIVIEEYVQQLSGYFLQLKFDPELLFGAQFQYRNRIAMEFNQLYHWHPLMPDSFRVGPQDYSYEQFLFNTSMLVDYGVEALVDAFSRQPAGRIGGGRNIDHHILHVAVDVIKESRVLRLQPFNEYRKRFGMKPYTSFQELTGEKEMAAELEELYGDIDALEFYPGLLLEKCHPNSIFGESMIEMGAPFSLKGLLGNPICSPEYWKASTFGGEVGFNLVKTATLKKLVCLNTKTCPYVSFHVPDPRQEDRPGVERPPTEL
Description: COX-1 inhibition, COX (ovine/human) inhibitor screening assay kit. It is filed as biochemical. How it is done:
Cell culture reagents were purchased from Euroclone (Milan, Italy). COX (ovine/human) inhibitor screening assay kit (Catalog No. 560131, Cayman Chemicals, Ann Arbor, MI, USA) was purchased from Sigma-Aldrich, Burlington, MA, USA. […] The other reagents were purchased from Sigma-Aldrich, Burlington, MA, USA.
The COX-1/2 inhibition screening experiments were carried out according to the manufacturer’s instructions. The plate was incubated for 60 min at r.t. under shaking and read with the Tecan Infinite 200 Microplate Reader at λ = 405 nm.
The graph between percent inhibition of the enzyme and corresponding concentration of the compound provided IC50 values for the probe compounds.

The nature of data set [1]: Fluorescence property measurements (absorption/emission spectra). Also on record: Stokes Shift: unit not given here. It is filed as physicochemical. On the procedure:
The λabs and λem, of the target compounds were measured in aqueous solution (phosphate-buffered saline solution, PBS) at the concentration of 10^−5 M (Table 1).
Fluorescence spectra of all target compounds were determined in PBS and EtOH solutions (Table 1) with a Tecan Infinite 200 Microplate Reader. In all experiments, the excitation and the emission bandpass were set at λ = 5 nm. The emission spectra were obtained from λ = 280 to 850 nm, with excitation set at the appropriate excitation wavelength. Absorption spectra were recorded with a Shimadzu UV-1800 spectrophotometer.

A further data set has as its system SKOV-3 xenograft tumors. Description: NIR fluorescence imaging / biodistribution in SKOV-3 s.c. xenograft models. It is filed as in vivo, NSG mice. Conditions: SKOV-3 s.c. mice, i.v. On the procedure:
In addition to OVCAR-3, the COX-1 low expressing SKOV-3 cell line was subcutaneously xenografted to evaluate the specificity of RR11 and 23 (MSA14). RR11 exerted high tumor fluorescence already two hours after injection (n = 2) with similar organ biodistribution as already observed in OVCAR-3 xenografts (TBR = 1.28; Figure 4A and Figure 5A). 23 (MSA14) was evaluated at 6 and 24 h, with a dose of 100 µM and 500 µM in n = 4 SKOV-3 models. […] However, the tumor fluorescence intensity was not sufficient to discriminate between healthy organs and malignant tissue at low exposure times of 100 ms “ex vivo”. The fluorescence signal in COX-1 low-expressing SKOV-3 tumors might be an indication of non-specific compound accumulation.
Female NOD-scid IL2rγ^null (NSG) mice, aged 6 to 25 weeks were maintained under defined floral conditions and no more than five mice were housed in individually ventilated (HEPA-filtered air) cages, kept on a 12 h dark/night schedule at a constant temperature of 21 °C and at 50% relative humidity at the University of Bergen’s animal facility. Observations of body weight and general condition including activity levels, appearance, and food intake were monitored twice weekly, and humane endpoints were defined with the use of score sheets. When indicated, animals were euthanized according to institutional guidelines.
Single cell suspensions of SKOV-3 and OVCAR-3 ovarian cancer cells, cultured as previously described, were obtained by washing the adherent cells with PBS and detached with trypsin-EDTA for 3–5 min at 37 °C. For subcutaneous injection (s.c.), cells were resuspended in an ice-cold mixture of 100 µL per insulin syringe (3/10-cc with 30 g needle) comprising 50 μL saline, 25 µL medium, and 25 µL Matrigel (cat# 08-774-391, Corning Inc®, Fisher Scientific, Waltham, MA, USA). SKOV-3 and OVCAR-3 subcutaneous xenograft models were established through lateral flank injection of 5 × 10^6 cells and 1 × 10^6 cells, respectively, under 3.5% sevoflurane inhalation anesthesia (cat# 29960 SevoFlo, Zoetis, Louvain-la-Neuve, Belgium). Mice were imaged with RR11 and MSA14 when the caliper measurements reached 200–500 mm^3 (Volume = (height × width × length × π)/6).
“In vivo” and “ex vivo” FLI was performed with both COX-1 targeting compounds, the reference compound RR11 and the novel 23 (MSA14), at different concentrations and time points. Prior to FLI, mice were shaved to avoid autofluorescence background signal. The desired concentration (100 µM, 500 µM) of the compound stock solutions in DMSO were freshly diluted with PBS, before 100 µL was injected intravenously into the tail vein. FLI was performed with the IVIS Spectrum In Vivo Imaging System with a λabs 640 ± 15 nm bandpass filter (BP), λem 680 ± 10 nm BP for RR11, and λabs 745 ± 15 nm BP, λem 820 ± 10 nm BP for 23 (MSA14), 0.5–24 h after small molecule administration. All scans were acquired with epi-illumination and auto exposure. Regions of interest (ROI) were manually gated around the tumor, organs, or the whole ventral and lateral positioned mouse and calculated using the Living image software (Perkin Elmer). The ROI of the muscle at the flank region was used to calculate the tumor-to-background (TBR) ratios.

Where [2] appears, read: ethanol (10^−4 M), two bands, listed as 23.

pIC50: −log10 of the molar value. Marks after values point to notes of the source that are not given here.

A word on the pIC50: it is −log10 of the IC50, conventionally taken in molar units.

The molecule `CCN1/C(=C/C=C/C=C/C=C/C2=[N+](CCCCCC(=O)NCCCCNC(=O)Cc3onc(-c4ccc(OC)cc4)c3-c3ccc(OC)cc3)c3ccc4ccccc4c3C2(C)C)C(C)(C)c2c1ccc1ccccc21` [23 (MSA14), 3-(6-(4-(2-(3,4-Bis(4-methoxyphenyl)isoxazole-5-yl)acetamido)butyl)amino-6-oxohexyl)-2-[7-(1,3-dihydro-1,1-dimethyl-3-ethyl-2H-benz[e]indolin-2-yl-idene)-1,3,5-heptatrienyl]-1,1-dimethyl-3-(6-carboxilato-hexyl)-1H-benz[e]indolium chloride] showed a pIC50 against COX-1 of 7.06. The inhibition at 50 µM on COX-1 (at 50 µM compound final concentration, read-out: COX-1 % inhib.) is 57%. Also, the λabs in data set [1] (setting [2]) is 770 nm. The λem in data set [1] (setting [2]) is reported as 822 nm. The “average TBR” value in the data set with SKOV-3 xenograft tumors (6 h, 100 µM) came to 1.23; in the data set with SKOV-3 xenograft tumors (6 h, 500 µM), 1.49; in the data set on SKOV-3 xenograft tumors (24 h, 100 µM), 1.96; in the data set with SKOV-3 xenograft tumors (24 h, 500 µM), 1.5.

For the molecule `COc1ccc(-c2noc(CC(=O)NCCCCNc3cc4[o+]c5cc(N(C)C)ccc5nc4c4ccccc34)c2-c2ccc(OC)cc2)cc1.[Cl-]` [RR11, N-[4-(9-dimethylimino-9H-benzo[a]phenoxazin-5-ylamino)butyl]-2-(3,4-bis(4-methoxyphenyl)isoxazol-5-yl)acetamide chloride, reference compound], on COX-1, the pIC50 is 7.49 and the “SI (selectivity index)” value is 75. This molecule displayed a COX-1 % inhib. on COX-1 (at 50 µM compound final concentration) of 83%. Also, in data set [1] (ethanol (10^−5 M)), the “Stokes Shift” value came to 62, the λabs is listed as 610 ^b nm and the λem is given as 672 ^b nm. Moreover, the “tumor-to-background ratio (TBR)” value with SKOV-3 xenograft tumors (two hours after injection) amounted to 1.28.

Values taken from publication PMC9230671, “Fluorochrome Selection for Imaging Intraoperative Ovarian Cancer Probes” (Pharmaceuticals, 2022).
